Where “and” joins values, the source holds several entries; their conditions need not be identical. Equal entries are not always repeated. Toxic doses and inconclusive results are not listed.
System: P388 leukemia ip, CD2F1 mice, survival T/C
Assay: NCI In Vivo Anticancer Drug Screen. Data for tumor model P388 Leukemia (intraperitoneal) in CD2F1 (CDF1) mice
Conditions: endpoint: median survival time, higher = longer survival
In short: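 Mice carrying the transplanted tumor received test compound or vehicle. Survival was recorded in each group, and the value is the treated-group measurement divided by that of the vehicle-treated control group.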

[1] = dose: 60.0 mg/kg/injection, schedule: Q01DX005 (ip), vehicle: Klucel (hydroxypropylcellulose) (HPC)
[2] = dose: 120.0 mg/kg/injection, schedule: Q01DX005 (ip), vehicle: Klucel (hydroxypropylcellulose) (HPC)
[3] = dose: 240.0 mg/kg/injection, schedule: Q01DX005 (ip), vehicle: Klucel (hydroxypropylcellulose) (HPC)
[4] = dose: 60.0 mg/kg/injection, schedule: Q01DX005 (ip), vehicle: saline with Tween-80
[5] = dose: 120.0 mg/kg/injection, schedule: Q01DX005 (ip), vehicle: saline with Tween-80
[6] = dose: 240.0 mg/kg/injection, schedule: Q01DX005 (ip), vehicle: saline with Tween-80
[7] = dose: 50.0 mg/kg/injection, schedule: Q01DX009 (ip), vehicle: saline with Tween-80
[8] = dose: 100.0 mg/kg/injection, schedule: Q01DX009 (ip), vehicle: saline with Tween-80
[9] = dose: 12.5 mg/kg/injection, schedule: Q01DX009 (ip), vehicle: saline
[10] = dose: 25.0 mg/kg/injection, schedule: Q01DX009 (ip), vehicle: saline
[11] = dose: 100.0 mg/kg/injection, schedule: Q01DX009 (ip), vehicle: saline
[12] = dose: 200.0 mg/kg/injection, schedule: Q01DX009 (ip), vehicle: saline
[13] = dose: 25.0 mg/kg/injection, schedule: Q01DX009 (ip), vehicle: Klucel (hydroxypropylcellulose) (HPC)
[14] = dose: 50.0 mg/kg/injection, schedule: Q01DX009 (ip), vehicle: Klucel (hydroxypropylcellulose) (HPC)
[15] = dose: 100.0 mg/kg/injection, schedule: Q01DX009 (ip), vehicle: Klucel (hydroxypropylcellulose) (HPC)
[16] = dose: 200.0 mg/kg/injection, schedule: Q01DX009 (ip), vehicle: Klucel (hydroxypropylcellulose) (HPC)
[17] = dose: 100.0 mg/kg/injection, schedule: Q04DX002 (ip), vehicle: saline with Tween-80
[18] = dose: 200.0 mg/kg/injection, schedule: Q04DX002 (ip), vehicle: saline with Tween-80
[19] = dose: 50.0 mg/kg/injection, schedule: Q01DX009 (ip), vehicle: saline
[20] = dose: 15.0 mg/kg/injection, schedule: Q01DX005 (ip), vehicle: Klucel (hydroxypropylcellulose) (HPC)
[21] = dose: 30.0 mg/kg/injection, schedule: Q01DX005 (ip), vehicle: Klucel (hydroxypropylcellulose) (HPC)

## CCC(=O)N1C(=O)C(C)C23c4cc(OC)c(OC)cc4C(=O)N2CCCN13 (stereo not drawn)
[1]
  T/C: 100 % of control
[2]
  T/C: 94 % of control
[3]
  T/C: 90 % of control

## CSc1c(C)c(C)nn1-c1ccccc1
[4]
  T/C: 104 % of control
[5]
  T/C: 111 % of control
[6]
  T/C: 104 % of control

## CC(C)(C)OC(=O)NCC(=O)ON1C(=O)CCC1=O
[7]
  T/C: 118 % of control
[8]
  T/C: 102 % of control

## CCC(=O)NC(C)C(=O)O (stereo not drawn)
dose: 6.25 mg/kg/injection, schedule: Q01DX009 (ip), vehicle: saline
  T/C: 100 % of control
[9]
  T/C: 88 % of control
[10]
  T/C: 88 % of control
[11]
  T/C: 94 % of control
[12]
  T/C: 97 % of control

## O=C1OCC2(C(=O)O)C(=O)OCC12 (stereo not drawn)
dose: 8.0 mg/kg/injection, schedule: Q01DX009 (ip), vehicle: saline with Tween-80
  T/C: 94 % of control
dose: 16.0 mg/kg/injection, schedule: Q01DX009 (ip), vehicle: saline with Tween-80
  T/C: 105 % of control and 108 % of control
dose: 32.0 mg/kg/injection, schedule: Q01DX009 (ip), vehicle: saline with Tween-80
  T/C: 107 % of control
dose: 64.0 mg/kg/injection, schedule: Q01DX009 (ip), vehicle: saline with Tween-80
  T/C: 100 % of control and 108 % of control
dose: 128.0 mg/kg/injection, schedule: Q01DX009 (ip), vehicle: saline with Tween-80
  T/C: 97 % of control

## COc1c(Cl)ncnc1Cl
[13]
  T/C: 100 % of control
[14]
  T/C: 103 % of control
[15]
  T/C: 110 % of control
[16]
  T/C: 98 % of control

## COc1ccc(N=Nc2c(C)nn(C(=S)SC)c2C)cc1
[17]
  T/C: 100 % of control
[18]
  T/C: 105 % of control
dose: 400.0 mg/kg/injection, schedule: Q04DX002 (ip), vehicle: saline with Tween-80
  T/C: 109 % of control

## CCn1c2ccccc2c2cc(N=Nc3cc4ccccc4cc3O)ccc21
[14]
  T/C: 104 % of control
[15]
  T/C: 100 % of control
[16]
  T/C: 104 % of control

## Oc1ccc2c(c1)OC1(c3ccccc3)CC2N=CN1 (stereo not drawn)
[9]
  T/C: 103 % of control
[10]
  T/C: 95 % of control
[19]
  T/C: 107 % of control
dose: 50.0 mg/kg/injection, schedule: Q01DX009 (ip), vehicle: suspension in saline
  T/C: 98 % of control and 92 % of control
dose: 100.0 mg/kg/injection, schedule: Q01DX009 (ip), vehicle: suspension in saline
  T/C: 98 % of control and 92 % of control
dose: 200.0 mg/kg/injection, schedule: Q01DX009 (ip), vehicle: suspension in saline
  T/C: 99 % of control

## COc1ccc2c(c1)C(c1cccc3ccccc13)OC2 (stereo not drawn)
dose: 12.5 mg/kg/injection, schedule: Q01DX005 (ip), vehicle: Klucel (hydroxypropylcellulose) (HPC)
  T/C: 100 % of control
dose: 25.0 mg/kg/injection, schedule: Q01DX005 (ip), vehicle: Klucel (hydroxypropylcellulose) (HPC)
  T/C: 88 % of control
dose: 50.0 mg/kg/injection, schedule: Q01DX005 (ip), vehicle: Klucel (hydroxypropylcellulose) (HPC)
  T/C: 86 % of control and 91 % of control

## Cc1c2ccccc2c(C)c2c1ccc1ccccc12
dose: 3.13 mg/kg/injection, schedule: Q01DX009 (ip), vehicle: saline with Tween-80
  T/C: 167 % of control
dose: 4.0 mg/kg/injection, schedule: Q01DX009 (ip), vehicle: saline with Tween-80
  T/C: 163 % of control
dose: 6.2 mg/kg/injection, schedule: Q01DX009 (ip), vehicle: saline with Tween-80
  T/C: 163 % of control
dose: 6.25 mg/kg/injection, schedule: Q01DX009 (ip), vehicle: saline with Tween-80
  T/C: 180 % of control and 184 % of control
dose: 9.3 mg/kg/injection, schedule: Q01DX009 (ip), vehicle: saline with Tween-80
  T/C: 109 % of control
dose: 12.5 mg/kg/injection, schedule: Q01DX009 (ip), vehicle: saline with Tween-80
  T/C: 175 % of control
dose: 12.5 mg/kg/injection, schedule: Q04DX003 (ip), vehicle: other
  T/C: 104 % of control
dose: 25.0 mg/kg/injection, schedule: Q01DX009 (ip), vehicle: saline with Tween-80
  T/C: 98 % of control and 100 % of control and 116 % of control
dose: 25.0 mg/kg/injection, schedule: Q04DX003 (ip), vehicle: other
  T/C: 116 % of control
[7]
  T/C: 100 % of control
dose: 50.0 mg/kg/injection, schedule: Q04DX003 (ip), vehicle: other
  T/C: 116 % of control
dose: 100.0 mg/kg/injection, schedule: Q04DX003 (ip), vehicle: other
  T/C: 111 % of control

## COc1ccc(C(OCC2CC3CCC2C3)OCC2CC3CCC2C3)cc1 (stereo not drawn)
dose: 12.5 mg/kg/injection, schedule: Q01DX009 (ip), vehicle: other
  T/C: 114 % of control
dose: 25.0 mg/kg/injection, schedule: Q01DX009 (ip), vehicle: other
  T/C: 111 % of control
dose: 50.0 mg/kg/injection, schedule: Q01DX009 (ip), vehicle: other
  T/C: 110 % of control
dose: 100.0 mg/kg/injection, schedule: Q01DX009 (ip), vehicle: other
  T/C: 111 % of control
dose: 200.0 mg/kg/injection, schedule: Q01DX009 (ip), vehicle: other
  T/C: 111 % of control

## CCc1ncc(C(C)(O)c2ccc(C)cc2)n1Cc1ccccc1 (stereo not drawn)
[1]
  T/C: 90 % of control
[2]
  T/C: 86 % of control
[3]
  T/C: 86 % of control

## CN1CCO[Si](C)(C)C[Si](C)(C)OCC1
dose: 60.0 mg/kg/injection, schedule: Q01DX005 (ip), vehicle: saline
  T/C: 103 % of control
dose: 120.0 mg/kg/injection, schedule: Q01DX005 (ip), vehicle: saline
  T/C: 102 % of control
dose: 240.0 mg/kg/injection, schedule: Q01DX005 (ip), vehicle: saline
  T/C: 105 % of control

## CC1=C(C)C(=O)C2=C(OCCCO2)C1=O
[20]
  T/C: 98 % of control
[21]
  T/C: 96 % of control
[1]
  T/C: 98 % of control

## CCCCN(CCCC)C(=S)S
[20]
  T/C: 105 % of control
[21]
  T/C: 98 % of control
[1]
  T/C: 88 % of control

## CCOC(=O)/C(=C(/[S-])SC)[n+]1ccc(C)cc1
[17]
  T/C: 101 % of control
[18]
  T/C: 99 % of control

## C=C1CC(C)OC1=O (stereo not drawn)
[17]
  T/C: 103 % of control
[18]
  T/C: 111 % of control

## BrC(Br)(c1ccccc1)C1OCCO1
[7]
  T/C: 109 % of control
[8]
  T/C: 109 % of control
dose: 200.0 mg/kg/injection, schedule: Q01DX009 (ip), vehicle: saline with Tween-80
  T/C: 113 % of control

## NC1=C(Br)C(=O)C(N)=C(Br)C1=O
[1]
  T/C: 100 % of control
[2]
  T/C: 97 % of control
[3]
  T/C: 105 % of control

## CCCCCCCCCCCCCCCCCCN(CCCCCCCCCCCCCCCCCC)c1ccc(/C=C/c2ccnc3ccccc23)cc1
[13]
  T/C: 104 % of control
[14]
  T/C: 95 % of control
[15]
  T/C: 95 % of control
[16]
  T/C: 104 % of control

## Cc1cc(=O)oc2ccc3c(=O)ccoc3c12
[4]
  T/C: 95 % of control
[5]
  T/C: 96 % of control
[6]
  T/C: 97 % of control

## CC1(O)Cn2c(=O)c3cc4ccccc4cc3c(=O)n2CC1(C)Br (stereo not drawn)
dose: 50.0 mg/kg/injection, schedule: Q04DX002 (ip), vehicle: DMSO
  T/C: 105 % of control
dose: 100.0 mg/kg/injection, schedule: Q04DX002 (ip), vehicle: DMSO
  T/C: 101 % of control
dose: 200.0 mg/kg/injection, schedule: Q04DX002 (ip), vehicle: DMSO
  T/C: 101 % of control

## COC(=O)C/C(C(=O)OC)=C1\CCCC2=C1N1CCCC1C2(CC(=O)OC)C(=O)OC (stereo not drawn)
dose: 12.5 mg/kg/injection, schedule: Q01DX001 (ip), vehicle: Klucel (hydroxypropylcellulose) (HPC)
  T/C: 97 % of control
dose: 25.0 mg/kg/injection, schedule: Q01DX001 (ip), vehicle: Klucel (hydroxypropylcellulose) (HPC)
  T/C: 98 % of control
dose: 50.0 mg/kg/injection, schedule: Q01DX001 (ip), vehicle: Klucel (hydroxypropylcellulose) (HPC)
  T/C: 100 % of control

## ON(C=Nc1ccccc1)c1ccccc1
[19]
  T/C: 101 % of control
[11]
  T/C: 101 % of control
[12]
  T/C: 97 % of control

## Cc1nc2c(cc1C#N)C(NCCO)Oc1ccccc1-2 (stereo not drawn)
[4]
  T/C: 97 % of control
[5]
  T/C: 97 % of control
[6]
  T/C: 99 % of control

## COC(=O)c1[nH]cc2ccccc12
dose: 100.0 mg/kg/injection, schedule: Q04DX003 (ip), vehicle: saline with Tween-80
  T/C: 98 % of control
dose: 200.0 mg/kg/injection, schedule: Q04DX003 (ip), vehicle: saline with Tween-80
  T/C: 104 % of control
dose: 400.0 mg/kg/injection, schedule: Q04DX003 (ip), vehicle: saline with Tween-80
  T/C: 102 % of control

— PubChem BioAssay AID330 (DTP/NCI, 2004)
